We go through three compounds from patent US20070299109A1, “Dimeric Compounds Of Piperidine, Piperazine Or Morpholine Or Their 7-Membered Analogs Suitable For The Treatment Of Neurodegenerative Disorders” (priority 2004, published 2007).

The test system of this experiment is chicken dorsal root ganglion neurons. The experiment is described as follows: Neuronal viability assay (calcein-AM) in primary culture of chicken dorsal root ganglion neurons. Type of experiment: cell-based, White Leghorn chick embryos. The following applies: Gallus gallus, DRG neuron, 48 h; survival of chick DRG neurons after two days of incubation; 0% = no neurotrophic factor, 100% = 10 ng/ml NGF; read-out: [C1] DRG assay SCORE (pIC50 value scored) (converted). An excerpt: This assay is based on a fluorimetric Calcein-AM measurement and addresses the functional response of neurons as a quantitative measure of survival.
Dorsal root ganglia were dissected from White Leghorn chick embryos at embryonic day 10 as described previously (Skaper S. D. and Varon S. (1986) Brain Research 389, 39-46). The ganglia were trypsinised and dissociated by mild trituration in a HBSS buffer supplemented with 0.6% glucose and 0.08% trypsin. To remove non-neuronal cells by differential attachment to culture plastic, the ganglionic cell suspension was lo diluted to 2.5×10^5 cells/ml and seeded on tissue culture plastic dishes at 10 ml per 100 mm dish. After 2 h preplating, unattached neurons were collected and resuspended into Basal Eagle Medium containing 10% FCS. To remove cell aggregates, the cell suspension was passed through a nylon mesh (50 μM) pore diameter. Neuron-enriched cell suspension was plated at 5×10^4 cells/ml into poly-L-ornithine (100 μg/ml) and laminine (1 μg/ml) coated multiwell 96 plates. Compounds were dissolved in dimethyl sulfoxide and kept as a stock at −20° C. NGF and compounds were diluted in the culture medium and added to the cells immediately after plating. The final concentration of dimethyl sulfoxide in the test medium was 0.1%. After two days of incubation, neuronal viability was assessed with calcein-AM.
Neuronal viability assay using calcein AM was performed as previously described (Bozyczko-Coyne D., McKenna B. W., Connors T. J., and Neff N. T. (1993) Journal of Neuroscience Methods 50, 205-216). For the assay, calcein-AM was diluted in PBS to the final concentration (1 μM). […] Following the incubation, reading was done in a Cytofluor II at an excitation wavelength of 485 nm and an emission wavelength of 530 nm. […]
The drugs to be tested were taken from a stock solution and tested at a final concentration ranging from […] to 3.10^−9M. From the thus obtained dose response curves, the pIC50 value was calculated and scored as follows; Score 1=pIC50 value<6, Score 2=pIC50 value in the range of 6 to 8, Score 3=pIC50 value>8.

The structures appear in SMILES notation. Bounds are passed on as bounds.

Regarding `CN(c1nc2ccc(F)cc2s1)C1CCN(C(=O)CCCCCCCC(=O)N2CCC(N(C)c3nc4ccc(F)cc4s3)CC2)CC1` [Compound 5], the IC50 was 10 to 1000 nM. To `c1ccc2c(c1)CCN2C1CCN(CCCN2CCC(N3CCc4ccccc43)CC2)CC1` [Compound 47] belongs greater than 1000 nM; to `CN(c1nc2ccccc2s1)C1CCN(C(=O)NC2CCC(CC3CCC(NC(=O)N4CCC(N(C)c5nc6ccccc6s5)CC4)CC3)CC2)CC1` (stereo not drawn) [Compound 9], 10 to 1000 nM.
